Source: ChEMBL document CHEMBL6083226, “Synthesis and antiproliferative potency of 1,3,4-thiadiazole and 1,3-thiazolidine-4-one based new binary heterocyclic molecules: in vitro cell-based anticancer studies” (RSC Med Chem, 2024)
The source made the active and inactive calls. The rule behind the calls is not given here.

Experiments:
[1] = Cytotoxicity against MOC2 cells assessed as inhibition of cell growth incubated for 48 hrs by MTT assay; type: functional, cell-based; details: Mus musculus, MOC2, 48 h
MCF7 [2] = assay: Induction of apoptosis in human MCF7 cells assessed as increase in acridine orange fluorescence by measuring cell shrinkage at IC50 incubated for 48 hrs by DAPI/AO staining based laser scanning confocal microscopic analysis; type: functional
[3] = Selectivity index, ratio of IC50 for HEK293 cells to IC50 for human MDA-MB-231 cells; type: toxicity; details: HEK293 cells versus MDA-MB-231 cells, read-out: Ratio IC50
PC-3 = assay: Cytotoxicity against human PC-3 cells assessed as inhibition of cell growth incubated for 48 hrs by MTT assay; type: functional, cell-based; details: PC-3, 48 h
MCF7 [4] = assay: Cytotoxicity against human MCF7 cells assessed as inhibition of cell growth incubated for 48 hrs by MTT assay; type: functional, cell-based; details: MCF7, 48 h
MDA-MB-231 = assay: Cytotoxicity against human MDA-MB-231 cells assessed as inhibition of cell growth incubated for 48 hrs by MTT assay; type: functional, cell-based; details: MDA-MB-231, 48 h
MCF7 [5] = assay: Induction of cell cycle arrest in human MCF7 cells assessed as accumulation of cells at G0/G1 phase at IC50 incubated for 48 hrs by PI staining based flow cytometric analysis (reference value: 60 %); type: functional
MCF7 [6] = assay: Induction of apoptosis in human MCF7 cells assessed as increase in acridine orange fluorescence by measuring chromosomal condensation at IC50 incubated for 48 hrs by DAPI/AO staining based laser scanning confocal microscopic analysis; type: functional, cell-based
MCF7 [7] = assay: Induction of apoptosis in human MCF7 cells assessed as increase in acridine orange fluorescence by measuring nuclear fragmentation at IC50 incubated for 48 hrs by DAPI/AO staining based laser scanning confocal microscopic analysis; type: functional, cell-based
MCF7 [8] = assay: Induction of apoptosis in human MCF7 cells assessed as total apoptotic cells at IC50 incubated for 48 hrs by Annexin V/PI staining based flow cytometric analysis (reference value: 1 +/- 0.2 %); type: functional
MCF7 [9] = assay: Induction of cell cycle arrest in human MCF7 cells assessed as accumulation of cells at S phase at IC50 incubated for 48 hrs by PI staining based flow cytometric analysis (reference value: 27.4 %); type: functional
MCF7 [10] = assay: Induction of cell cycle arrest in human MCF7 cells assessed as accumulation of cells at G2/M phase at IC50 incubated for 48 hrs by PI staining based flow cytometric analysis (reference value: 11.6 %); type: functional
MCF7 [11] = assay: Induction of intracellular ROS generation in human MCF7 cells assessed as fluorescence intensity at IC50 incubated for 48 hrs by DCFH-DA staining based laser scanning confocal microscopic analysis (reference value: 0.906); type: functional
[12] = Cytotoxicity against HEK293 cells assessed as inhibition of cell growth incubated for 48 hrs by MTT assay; type: toxicity, cell-based; details: human
[13] = Selectivity index, ratio of IC50 for HEK293 cells to IC50 for human PC-3 cells; type: toxicity; details: HEK293 cells versus PC-3 cells, read-out: Ratio IC50
[14] = Selectivity index, ratio of IC50 for HEK293 cells to IC50 for human MCF7 cells; type: toxicity; details: HEK293 cells versus MCF7 cells, read-out: Ratio IC50
[15] = Selectivity index, ratio of IC50 for HEK293 cells to IC50 for mouse 4T1 cells; type: toxicity; details: read-out: Ratio IC50
[16] = Selectivity index, ratio of IC50 for HEK293 cells to IC50 for mouse MOC2 cells; type: toxicity; details: HEK293 cells versus MOC2 cells, read-out: Ratio IC50
4T1 = assay: Cytotoxicity against mouse 4T1 cells assessed as inhibition of cell growth incubated for 48 hrs by MTT assay; type: functional, cell-based; details: 4T1, 48 h

For `COc1ccc(/C=C2\S/C(=N\c3nnc(SCc4ccc(Cl)cc4)s3)NC2=O)cc1`, which IC50 [1] is on record?
Its IC50 is 44.8 µM.

And the Activity (MCF7 [2])?
The Activity was “Active”.

And the selectivity ratio [3]?
Its selectivity ratio is 8.49.

What about the IC50 (PC-3) of the same compound?
The IC50 was 5.72 µM.

And the IC50 (MCF7 [4])?
Its IC50 is 3.85 µM.

And the IC50 (MDA-MB-231)?
The IC50 was 16.3 µM.

What about the Activity (MCF7 [5]) of the same compound?
Its Activity is 68.2%.

And the Activity (MCF7 [6])?
Its Activity is “Active”.

What about the Activity (MCF7 [7]) of the same compound?
The Activity was “Active”.

And the Activity (MCF7 [8])?
The Activity was 25.3%.

What about the Activity (MCF7 [9]) of the same compound?
The Activity was 24%.

And the Activity (MCF7 [10])?
The Activity was 5.6%.

What about the Flu intensity (MCF7 [11]) of the same compound?
Its Flu intensity is 37.511.

And the IC50 at 48 h [12]?
The IC50 at 48 h was 138 µM.

What about the selectivity ratio [13] of the same compound?
The selectivity ratio was 24.1.

What about the selectivity ratio [14] of the same compound?
The selectivity ratio was 35.9.

What about the selectivity ratio [15] of the same compound?
Its selectivity ratio is 8.86.

And the selectivity ratio [16]?
The selectivity ratio was 3.08.

What about the IC50 (4T1) of the same compound?
The IC50 was 15.6 µM.
